# Values joined by “and” are separate entries in the source; they are usually repeats but may differ in a detail not shown here. Identical values can stand only once.
# Columns and labels:
# [1] = system: normal human dermal fibroblasts (NHDF); assay: MTT reduction assay and observation of the cell layers: viability of fibroblasts after 48 hours of incubation; assay type: cell-based; conditions: for Visability (%): single replicates; for Morpholigical observations: key: +: normal population; +/−: growth reduction; −: toxicity; 0: cell mortality; grains of compound; opacity of the compound; *: morphological modification; agglutinated cells
# Procedure: Normal human dermal fibroblasts (NHDF) were used at the 8th passage. Cells were cultured at 37° C., 5% CO2 in DMEM supplemented with L-glutamine 2 mM, 50 U/ml Penicillin, 50 μg/ml Streptomycin and 10% Foetal calf serum (FCS).
# [2] = system: caspase-3/7; assay: Staurosporine-induced caspase-3/7 activity in NHDF, measured in cell lysates with fluorogenic substrate Ac-DEVD-AMC; assay type: cell-based, human; conditions: staurosporine-stimulated NHDF; for Caspase-3/7 activity (Fluorescence 380 nm/440 nm) / Caspase-3/7 activity - Background (Fluorescence 380 nm/440 nm) / Caspese-3/7 activity/proteins: single replicates
# Procedure: The potential inhibitory effect of compounds 15(S)-HEPE EE and EPA EE was evaluated on staurosporine-induced caspase activation in normal human dermal fibroblasts (NHDF). […] Normal human dermal fibroblasts (NHDF) were used at the 8th passage. […] Fibroblasts were seeded in 24-well plates and cultured for 24 hours in culture medium. The medium was then removed and replaced by assay medium containing or not (control) the test compounds and cells were pre-incubated for 24 hours. […] The cells were then incubated for 24 hours. Non-stimulated controls (without inducer) were performed in parallel. All experimental conditions were performed in n=3. […] Enzyme activity assay and protein quantification assay were performed in separated plates due to the fact that DTT used in the lysis buffer for caspase activity interferes with protein quantification. […] Lysis buffer: HEPES buffer (pH 7.4) containing EDTA, Triton X-100, NP-40 and DTT Assay Buffer: HEPES buffer (pH 7.4) containing NaCl, EDTA, NP-40, glycerol and DTT Substrate: Ac-DEVD-AMC, tested at 10 μM (stock solution at 1.5 mM in DMSO) Reference inhibitor: […] Ac-DEVD-AMC is a synthetic tetrapeptide fluorogenic substrate for caspase-3 and caspase-7 and contains the amino acid sequence of the PARP cleavage site at […]. […] Enzymes cleave the tetrapeptide between D and AMC resulting in the release of fluorogenic AMC, which can be quantified with a spectrofluorometer. […] In parallel, an additional control (assay buffer containing the substrate) was also performed to determine the background signal. At the end of incubation, the fluorescence intensity emitted by the reaction product (cleaved Ac-DEVD-AMC) was measured at wavelengths λex 380 nm and λem 440 nm using a spectrofluorimeter (SPECTRAmax® Gemini, Molecular Devices).
smiles,measurement,setting,value
CC/C=C\C/C=C\C/C=C\C/C=C\C/C=C\CCCC(=O)OCC [EPA EE],Morpholigical observations,[1]; 0.001 μg/ml,+
same,Visability (%) Mean,[1]; 0.001 μg/ml,100%
same,Visability (%),[1]; 0.001 μg/ml,99% and 97% and 104%
same,Morpholigical observations,[1]; 0.01 μg/ml,+
same,Visability (%) Mean,[1]; 0.01 μg/ml,98%
same,Visability (%),[1]; 0.01 μg/ml,101% and 94% and 98%
same,Morpholigical observations,[1]; 0.1 μg/ml,+
same,Visability (%) Mean,[1]; 0.1 μg/ml,99%
same,Visability (%),[1]; 0.1 μg/ml,99% (2×) and 98%
same,Morpholigical observations,[1]; 1 μg/ml,+
same,Visability (%) Mean,[1]; 1 μg/ml,97%
same,Visability (%),[1]; 1 μg/ml,95% (2×) and 100%
same,Morpholigical observations,[1]; 10 μg/ml,+
same,Visability (%) Mean,[1]; 10 μg/ml,97%
same,Visability (%),[1]; 10 μg/ml,94% and 98% and 100%
same,Morpholigical observations,[1]; 30 μg/ml,+
same,Visability (%) Mean,[1]; 30 μg/ml,96%
same,Visability (%),[1]; 30 μg/ml,99% and 95% and 93%
same,Morpholigical observations,[1]; 100 μg/ml,+
same,Visability (%) Mean,[1]; 100 μg/ml,100%
same,Visability (%),[1]; 100 μg/ml,102% and 98% and 100%
same,Morpholigical observations,[1]; 300 μg/ml,+
same,Visability (%) Mean,[1]; 300 μg/ml,106%
same,Visability (%),[1]; 300 μg/ml,105% and 107% and 106%
same,% inhibition,[2]; 0.001 μg/ml,−31%
same,% stimulated control,[2]; 0.001 μg/ml,128%
same,Normalized data: Mean (caspase-3/7 activity/proteins),[2]; 0.001 μg/ml,113173 AU/mg
same,Caspase-3/7 activity (Fluorescence 380 nm/440 nm),[2]; 0.001 μg/ml,1457 AU and 1667 AU and 1637 AU
same,Caspase-3/7 activity - Background (Fluorescence 380 nm/440 nm),[2]; 0.001 μg/ml,1140 AU and 1350 AU and 1320 AU
same,Caspese-3/7 activity/proteins,[2]; 0.001 μg/ml,100237 AU/mg and 128199 AU/mg and 111084 AU/mg
same,% inhibition,[2]; 0.01 μg/ml,−1%
same,% stimulated control,[2]; 0.01 μg/ml,101%
same,Normalized data: Mean (caspase-3/7 activity/proteins),[2]; 0.01 μg/ml,89425 AU/mg
same,Caspase-3/7 activity (Fluorescence 380 nm/440 nm),[2]; 0.01 μg/ml,1359 AU and 1476 AU and 1472 AU
same,Caspase-3/7 activity - Background (Fluorescence 380 nm/440 nm),[2]; 0.01 μg/ml,1042 AU and 1159 AU and 1155 AU
same,Caspese-3/7 activity/proteins,[2]; 0.01 μg/ml,89522 AU/mg and 89043 AU/mg and 89708 AU/mg
same,% inhibition,[2]; 0.1 μg/ml,5%
same,% stimulated control,[2]; 0.1 μg/ml,95%
same,Normalized data: Mean (caspase-3/7 activity/proteins),[2]; 0.1 μg/ml,84209 AU/mg
same,Caspase-3/7 activity (Fluorescence 380 nm/440 nm),[2]; 0.1 μg/ml,1474 AU and 1382 AU and 1558 AU
same,Caspase-3/7 activity - Background (Fluorescence 380 nm/440 nm),[2]; 0.1 μg/ml,1157 AU and 1065 AU and 1241 AU
same,Caspese-3/7 activity/proteins,[2]; 0.1 μg/ml,83312 AU/mg and 79809 AU/mg and 89506 AU/mg
same,% inhibition,[2]; 1 μg/ml,−3%
same,% stimulated control,[2]; 1 μg/ml,103%
same,Normalized data: Mean (caspase-3/7 activity/proteins),[2]; 1 μg/ml,90527 AU/mg
same,Caspase-3/7 activity (Fluorescence 380 nm/440 nm),[2]; 1 μg/ml,1423 AU and 1604 AU and 1486 AU
same,Caspase-3/7 activity - Background (Fluorescence 380 nm/440 nm),[2]; 1 μg/ml,1106 AU and 1287 AU and 1169 AU
same,Caspese-3/7 activity/proteins,[2]; 1 μg/ml,87358 AU/mg and 96851 AU/mg and 87370 AU/mg
same,% inhibition,[2]; 10 μg/ml,2%
same,% stimulated control,[2]; 10 μg/ml,98%
same,Normalized data: Mean (caspase-3/7 activity/proteins),[2]; 10 μg/ml,86723 AU/mg
same,Caspase-3/7 activity (Fluorescence 380 nm/440 nm),[2]; 10 μg/ml,1335 AU and 1264 AU and 1458 AU
same,Caspase-3/7 activity - Background (Fluorescence 380 nm/440 nm),[2]; 10 μg/ml,1018 AU and 947 AU and 1141 AU
same,Caspese-3/7 activity/proteins,[2]; 10 μg/ml,78044 AU/mg and 76787 AU/mg and 105337 AU/mg
same,% inhibition,[2]; 100 μg/ml,61%
same,% stimulated control,[2]; 100 μg/ml,45%
same,Normalized data: Mean (caspase-3/7 activity/proteins),[2]; 100 μg/ml,39319 AU/mg
same,effect on caspase-3/7 activity (in words),[2]; 100 μg/ml,clear inhibitory effect
same,Caspase-3/7 activity (Fluorescence 380 nm/440 nm),[2]; 100 μg/ml,807 AU and 843 AU and 1068 AU
same,Caspase-3/7 activity - Background (Fluorescence 380 nm/440 nm),[2]; 100 μg/ml,490 AU and 526 AU and 751 AU
same,Caspese-3/7 activity/proteins,[2]; 100 μg/ml,29572 AU/mg and 37623 AU/mg and 50763 AU/mg
same,effect on caspase-3/7 activity (in words),[2]; tested from 0.001 to 10 μg/ml,no effect

# Source: US10716773B2, “Compositions comprising 15-HEPE and methods of treating or preventing cancer and neurologic disease” (Afimmune Limited, priority 2015, dated 2020)
